Test results from patent US7728012B2, “Carboxamide compounds and their use as calpain inhibitors” (Abbott GmbH & Co. KG, priority 2006, dated 2010).
Structures can show the parent of a compound that is named as a salt.

Experiments:
[1] = target: T1, calpain-I isolated from human erythrocytes (Homo sapiens, UniProt P07384); assay: Calpain I kinetic fluorescence enzyme inhibition assay; format: biochemical; details: apparent Ki from IC50 by Cheng-Prussoff; average of 2 to 4 dose-effect plots
T1 construct: calpain-I—isolated from human erythrocytes; purchased Calbiochem 208713; host or cells: human erythrocytes (tissue isolate)
T1 sequence (P07384 1-714): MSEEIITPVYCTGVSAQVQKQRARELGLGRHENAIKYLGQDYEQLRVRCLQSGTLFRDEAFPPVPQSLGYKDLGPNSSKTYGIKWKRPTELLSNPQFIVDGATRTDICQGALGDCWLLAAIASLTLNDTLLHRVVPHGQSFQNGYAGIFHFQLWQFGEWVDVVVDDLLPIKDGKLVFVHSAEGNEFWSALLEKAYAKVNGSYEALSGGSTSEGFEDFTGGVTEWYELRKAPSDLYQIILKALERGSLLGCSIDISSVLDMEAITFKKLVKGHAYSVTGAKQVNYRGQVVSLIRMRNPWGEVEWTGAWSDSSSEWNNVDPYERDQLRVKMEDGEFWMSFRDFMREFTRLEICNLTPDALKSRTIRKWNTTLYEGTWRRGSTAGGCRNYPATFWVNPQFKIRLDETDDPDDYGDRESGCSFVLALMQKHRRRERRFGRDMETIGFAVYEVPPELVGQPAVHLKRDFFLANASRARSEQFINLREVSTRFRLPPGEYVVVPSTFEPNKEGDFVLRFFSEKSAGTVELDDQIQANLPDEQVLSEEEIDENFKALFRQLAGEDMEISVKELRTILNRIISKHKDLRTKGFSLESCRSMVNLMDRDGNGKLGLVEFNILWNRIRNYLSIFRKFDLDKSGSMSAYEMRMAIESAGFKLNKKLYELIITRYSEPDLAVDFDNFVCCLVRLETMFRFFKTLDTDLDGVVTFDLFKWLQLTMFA
T1 sequence (P04632 1-268 partner): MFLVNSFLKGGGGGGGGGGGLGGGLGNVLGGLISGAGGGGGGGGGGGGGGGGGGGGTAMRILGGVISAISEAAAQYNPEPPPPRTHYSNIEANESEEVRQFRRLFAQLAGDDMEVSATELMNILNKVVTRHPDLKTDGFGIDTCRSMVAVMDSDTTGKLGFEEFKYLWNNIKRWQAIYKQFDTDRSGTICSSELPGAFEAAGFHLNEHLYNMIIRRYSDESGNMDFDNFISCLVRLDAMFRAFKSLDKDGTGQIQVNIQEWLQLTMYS
Experimental: (§1) The following solutions and buffers were employed: • HBS (for 40 ml): 800 μl M HEPES; 2.16 ml 100 mM KCl; 4.8 ml 1M NaCl; 3.59 ml 5% glucose; 60 μl μM MgSO4; 400 μl 100 mM Na pyruvate, 28.19 ml water; pH 7.2-7.5. • lysis buffer (for 20 ml): 400 μl M Tris pH 8.2; 2.74 ml 1M NaCl; 520 μl 0.5M EDTA; 2 ml 10% triton X-100; 0.8 ml (=1:25) CompletePlus (1 tablet/2 ml H2O); 200 μl 100 mM Pefabloc; 13.34 ml water, pH 8.2. • TBST (10×) (for 1 l): 100 mM Tris (12.1 g); 1.5M NaCl (87 g); 1% Tween 20 (10 g), adjusted to pH 8. I Enzyme Inhibition In Vitro: • Testing for blockade of the corresponding enzymic activities was carried out by means of kinetic fluorescence assays (excitation 390 nm, emission 460 nm). • Apparent Ki values were calculated from the experimentally determined IC50 values by the Cheng-Prussoff relation assuming a reversible competitive enzyme inhibition. The Km values of the substrates used under the assay conditions indicated above were: 90 μM (Z-Phe-Arg-AMC, cathepsin B), 10 μM (Z-Gly-Pro-Arg-AMC, cathepsin K), 2 μM (Z-Phe-Arg-AMC, cathepsin L), and 30 μM (Z-Val-Val-Arg-AMC, cathepsin S). • The indicated Ki values are averages of the inhibition constants calculated on the basis of 2 to 4 independent dose-effect plots.
(§2) The following assays were used: • 1. Calpain I: • 20 nM calpain-I—isolated from human erythrocytes (Calbiochem #208713), 100 μM Suc-Leu-Tyr-AMC (Bachem #1-1355) as substrate in buffer with 62 mM imidazole, 0.3 mM CaCl2, 0.10% CHAPS, 0.05% BSA, 1 mM DTT at pH 7.3 and room temperature. • 2. Cathepsin B: • 0.25 nM cathepsin B—isolated from human liver (Calbiochem #219362), 100 μM Z-Phe-Arg-AMC (Bachem #I-1160) as substrate 50 mM MES, 2 mM EDTA, 0.05% Brij 35, 2.5 mM L-cysteine, pH 6.0, room temperature. • 3. Cathepsin K: • 3 nM cathepsin K—activated from recombinant human procathepsin K from E. coli (Calbiochem #342001), 10 μM Z-Gly-Pro-Arg-AMC (Biomol #P-142) as substrate in 50 mM MES, 2 mM EDTA, 0.05% Brij 35, 2.5 mM L-cysteine, pH 6.0, room temperature. • 4. Cathepsin L: • 1 nM cathepsin L—isolated from human liver (Calbiochem #219402), 2 μM Z-Phe-Arg-AMC (Bachem #1-1160) as substrate in 50 mM MES, 2 mM EDTA, 0.05% Brij 35, 2.5 mM L-cysteine, pH 6.0, room temperature. • 5. Cathepsin S: • 0.5 nM recombinant human cathepsin S from E. coli (Calbiochem #219343), 20 μM Z-Val-Val-Arg-AMC (Bachem #1-1540) as substrate in 50 mM MES, 2 mM EDTA, 0.05% Brij 35, 2.5 mM L-cysteine, pH 6.0, room temperature. • The results of the in vitro determination are indicated in Table 1. The following abbreviations are used in Table 1: • The “Calpain activity” column, ++ stands for a calpain Ki (Ki(calpain)) of ≦40 nM and + means: 40 nM<Ki(Calpain)≦100 nM. • The “Sel. cat. B” column indicates the Ki(cathepsin B)/Ki(calpain) ratio. In this connection, ++ means a Ki(cathepsin B)/Ki(calpain) ratio of ≧30 and + means 10≦Ki(cathepsin B)/Ki(calpain)<30. • The “Sel. cat. K” column indicates the Ki(cathepsin K)/Ki(calpain) ratio. In this connection, ++ means a Ki(cathepsin K)/Ki(calpain) ratio of ≧30 and + means 10≦Ki(cathepsin K)/Ki(calpain)<30. • The “Sel. cat. L” column indicates the Ki(cathepsin L)/Ki(calpain) ratio. In this connection, ++ means a Ki(cathepsin L)/Ki(calpain) ratio of ≧50 and + means 30≦Ki(cathepsin L)/Ki(calpain)<50. • The “Sel. cat. S” column indicates the Ki(cathepsin S)/Ki(calpain) ratio. In this connection, ++ means a Ki(cathepsin S)/Ki(calpain) ratio of ≧100 and + means 50≦Ki(cathepsin S)/Ki(calpain)<100.

[2] = target: T2, recombinant human cathepsin S (Homo sapiens, UniProt P25774); assay: Cathepsin S kinetic fluorescence enzyme inhibition assay; format: biochemical; details: selectivity ratio versus calpain I
T2 construct: purchased Calbiochem 219343; host or cells: E. coli
T2 sequence (P25774 115-331): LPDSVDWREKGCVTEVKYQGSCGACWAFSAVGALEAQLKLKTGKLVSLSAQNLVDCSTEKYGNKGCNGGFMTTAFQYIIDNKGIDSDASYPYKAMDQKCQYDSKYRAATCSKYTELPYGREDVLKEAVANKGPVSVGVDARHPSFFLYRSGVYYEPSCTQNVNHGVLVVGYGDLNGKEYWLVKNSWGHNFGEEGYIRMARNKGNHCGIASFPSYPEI
Experimental: as §1, §2

Row | Structure (SMILES) | Ki [1] [nM] | Sel cat. S (Ki(cathepsin S)/Ki(calpain) ratio) [2]
1 | NC(=O)C(=O)C(Cc1ccccc1)NC(=O)c1cccnc1-n1cc(-c2ccccc2)cn1 (centres unmarked) [Example 4, N-(3-Amino-1-benzyl-2,3-dioxopropyl)-2-(4-phenyl-1H-pyrazol-1-yl)nicotinamide] | ≤ 40 | –
2 | CCCCC(NC(=O)c1cccnc1-n1ccc(-c2ccccc2)n1)C(=O)C(N)=O (centres unmarked) [Example 6, N-{1-[Amino(oxo)acetyl]pentyl}-2-(3-phenyl-1H-pyrazol-1-yl)nicotinamide] | ≤ 40 | + (50≦Ki(cathepsin S)/Ki(calpain)<100)
3 | CCCCC(NC(=O)c1cccnc1-n1cnc(-c2ccc(Cl)cc2)c1)C(=O)C(N)=O (centres unmarked) [Example 10, N-{1-[Amino(oxo)acetyl]pentyl}-2-[4-(4-chlorophenyl)-1H-imidazol-1-yl]nicotinamide] | ≤ 40 | –
4 | CCCCC(NC(=O)c1cccnc1-n1cnc(-c2ccc(OC)cc2)c1)C(=O)C(N)=O (centres unmarked) [Example 12, N-{1-[Amino(oxo)acetyl]pentyl}-2-[4-(4-methoxyphenyl)-1H-imidazol-1-yl]nicotinamide] | ≤ 40 | –
5 | NC(=O)C(=O)C(Cc1ccccc1)NC(=O)c1cccnc1-n1cnc(-c2ccc(N3CCOCC3)cc2)c1 (centres unmarked) [Example 14, N-(3-Amino-1-benzyl-2,3-dioxopropyl)-2-[4-(4-morpholin-4-ylphenyl)-1H-imidazol-1-yl]nicotinamide] | 40 to 100 | ++ (Ki(cathepsin S)/Ki(calpain) ratio of ≧100)
6 | CCN(CC)c1ccc(-c2cn(-c3ncccc3C(=O)NC(Cc3ccccc3)C(=O)C(N)=O)cn2)cc1 (centres unmarked) [Example 16, N-(3-Amino-1-benzyl-2,3-dioxopropyl)-2-{4-[4-(diethylamino)phenyl]-1H-imidazol-1-yl}nicotinamide hydrochloride] | 40 to 100 | –
7 | NC(=O)C(=O)C(Cc1ccccc1)NC(=O)c1cccnc1-n1cnc(-c2ccccc2Cl)c1 (centres unmarked) [Example 19, N-(3-Amino-1-benzyl-2,3-dioxopropyl)-2-[4-(2-chlorophenyl)-1H-imidazol-1-yl]nicotinamide hydrochloride] | ≤ 40 | –
8 | CCCCC(NC(=O)c1cccnc1-n1cnc(-c2ccccc2Cl)c1)C(=O)C(N)=O (centres unmarked) [Example 20, N-{1-[Amino(oxo)acetyl]pentyl}-2-[4-(2-chlorophenyl)-1H-imidazol-1-yl]nicotinamide hydrochloride] | ≤ 40 | –
9 | CCCCC(NC(=O)c1cccnc1-n1cnc(-c2cccc(Cl)c2)c1)C(=O)C(N)=O (centres unmarked) [Example 21, N-{1-[Amino(oxo)acetyl]pentyl}-2-[4-(3-chlorophenyl)-1H-imidazol-1-yl]nicotinamide] | ≤ 40 | –
10 | NC(=O)C(=O)C(Cc1ccccc1)NC(=O)c1cccnc1-n1cnc(-c2cccc(Cl)c2)c1 (centres unmarked) [Example 22, N-(3-Amino-1-benzyl-2,3-dioxopropyl)-2-[4-(3-chlorophenyl)-1H-imidazol-1-yl]nicotinamide] | ≤ 40 | –
11 | NC(=O)C(=O)C(Cc1ccccc1)NC(=O)c1cc(Cl)cnc1-n1cnc(-c2ccccc2)c1 (centres unmarked) [Example 23, N-(3-Amino-1-benzyl-2,3-dioxopropyl)-5-chloro-2-(4-phenyl-1H-imidazol-1-yl)nicotinamide hydrochloride] | ≤ 40 | –
12 | CC(C)CC(NC(=O)c1cc(Cl)cnc1-n1cnc(-c2ccccc2)c1)C(=O)C(N)=O (centres unmarked) [Example 25, N-{1-[Amino(oxo)acetyl]-3-methylbutyl}-5-chloro-2-(4-phenyl-1H-imidazol-1-yl)nicotinamide] | ≤ 40 | –
13 | NC(=O)C(=O)C(Cc1ccccc1)NC(=O)c1cccnc1-n1ccc(-c2ccncc2)n1 (centres unmarked) [Example 65, N-(3-Amino-1-benzyl-2,3-dioxopropyl)-2-(3-pyridin-4-yl-1H-pyrazol-1-yl)nicotinamide] | – | ++ (Ki(cathepsin S)/Ki(calpain) ratio of ≧100)
14 | NC(=O)C(=O)C(Cc1ccccc1)NC(=O)c1cccnc1-n1ncc2ccccc21 (centres unmarked) [Example 77, N-(3-Amino-1-benzyl-2,3-dioxopropyl)-2-(1H-indazol-1-yl)nicotinamide] | ≤ 40 | –
15 | O=C[C@H](Cc1ccccc1)NC(=O)c1cccnc1-n1ccc(-c2ccccc2)n1 [Example 105, N-[(1S)-1-Formyl-2-phenylethyl]-2-(3-phenyl-1H-pyrazol-1-yl)pyridine-3-carboxamide] | ≤ 40 | –
16 | COc1ccc(CC(NC(=O)c2cccnc2-n2ccc(-c3cccc(C(F)(F)F)c3)n2)C(=O)C(N)=O)cc1 (centres unmarked) [Example 126, N-(3-Amino-1-{[4-(methyloxy)phenyl]methyl}-2,3-dioxopropyl)-2-{3-[3-(trifluoromethyl)phenyl]-1H-pyrazol-1-yl}pyridine-3-carboxamide] | ≤ 40 | –
17 | NC(=O)C(=O)C(Cc1ccccc1)NC(=O)c1cccnc1-n1ccc(-c2ccc3ocnc3c2)n1 (centres unmarked) [Example 129, N-[3-Amino-2,3-dioxo-1-(phenylmethyl)propyl]-2-[3-(1,3-benzoxazol-5-yl)-1H-pyrazol-1-yl]pyridine-3-carboxamide] | 40 to 100 | –
18 | CN(C)Cc1cn(-c2ncccc2C(=O)NC(Cc2ccccc2)C(=O)C(N)=O)nc1-c1cccc(C(F)(F)F)c1 (centres unmarked) [Example 176, N-[3-Amino-2,3-dioxo-1-(phenylmethyl)propyl]-2-{4-[(dimethylamino)methyl]-3-[3-(trifluoromethyl)phenyl]-1H-pyrazol-1-yl}pyridine-3-carboxamide] | – | ++ (Ki(cathepsin S)/Ki(calpain) ratio of ≧100)
